Assays:
[1] = test system: D54 glioblastoma cells overexpressing WT or R132H IDH1; assay: alamarBlue cell growth assay, D54 glioblastoma lines overexpressing WT or R132H IDH1; format: cell-based, human
Method: (§1) Standard techniques were used to introduce the R132H mutation into human IDH1 engineered with a 6×-His-tag and produce lentivirus containing either WT or mutant IDH1. D54 cells or transformed normal human astrocytes (TNA) were transduced with virus, and lines were grown from individual cells using limiting dilution. IDH1 expression in response to […] doxycycline was confirmed using a 6×-His tag antibody (Millipore). Liquid chromatography/mass spectrometry was conducted as previously described. Dang L., et al., Cancer-associated IDH1 mutations produce 2-hydroxyglutarate. Nature 2009; 462:739-44. siRNA was used to knock down glutaminase, and cells were assessed for knockdown using Western blotting. Gao P., et al., c-Myc suppression of miR-23a/b enhances mitochondria/glutaminase expression and glutamine metabolism. Nature 2009; 458:762-5. Cell growth assays using alamarBlue were carried out as described following DMSO or bis-2-(5-phenylacetamido-1,2,4-thiadiazol-2-yl)ethyl sulfide (BPTES) treatment. Liolome W., et al., Glioblastoma cell growth is suppressed by disruption of Fibroblast Growth Factor pathway signaling. J Neurooncol 2009:94:359-66. […] [3H]-glutamate was isolated from the reaction mixture using anion exchange and measured using a scintillation counter. […] Data were evaluated using a two-tailed Student's t-test. P≦0.05 was considered significant.
D54 or TNA cells were transduced with virus containing WT or R132H IDH1. D54 cells were transduced using virus containing pLVCT-tTR-KRAB constructs, and TNA were transduced with virus containing Duet011 constructs. Lines were grown from individual cells using limiting dilution and tested for IDH1 expression. Expression was confirmed using Western blot and 6×-His-tag antibodies (Millipore). 0.04 μg/mL doxycycline was used to induce expression for D54 lines. Cells were maintained in DMEM, 10% FBS, 4.5 g/L glucose, and penicillin/streptomycin. Transformed normal human astrocytes (TNA) were a gift from Christopher M. Counter.
Cell growth assays using alamarBlue were carried out as described. Loilome W., et al., Glioblastoma cell growth is suppressed by disruption of Fibroblast Growth Factor pathway signaling. J Neurooncol 2009; 94(3):359-66. Cells were plated at a density of 500 cells/well in a 96-well black clear bottom plate (Becton Dickinson).

[2] = test system: mutant IDH1 cells; assay: Annexin V staining (flow cytometry); format: cell-based, human; details: 10 μM BPTES, 24 hrs, vs DMSO
Method: Cells were plated at a density of 2×10^5 cells/well in a 6-well plate. Media was changed to media with or without doxycyline 24 hrs after plating.

[3] = test system: D54 cells overexpressing WT or R132H IDH1; assay: LC/MS metabolite levels in WT and mutant IDH1 D54 cells; format: cell-based, human; details: 10 mmol/L BPTES, 48 hours
Method: as §1
3×10^5 (untreated) or 7.5×10^5 (BPTES-treated) cells were seeded in a T75 flask. 24 hrs post-plating, media on the cells was changed to 4.5 g/L glucose, 10% HyClone dialyzed FBS (ThermoScientific), penicillin/streptomycin, 4 mM glutamine and 0.04 μg/mL doxycycline to induce IDH1 expression. […] Metabolites were measured in one of two ways: using a reverse phase column with tributylamine as an ion pairing agent, Luo B., et al., Simultaneous determination of multiple intracellular metabolites in glycolysis, pentose phosphate pathway and tricarboxylic acid cycle by liquid chromatography-mass spectrometry. J Chromatogr 2007; 1147(2):153-64, coupled to a Thermo Exactive Mass Spectrometer operating at 100,000 resolving power using a mass range of ±5 ppm or single reaction monitoring on a Thermo TSQ Quantum Triple Quadrupole Mass Spectrometer coupled to an aminopropyl HPLC column. Bajad S. U., et al., Separation and quantitation of water soluble cellular metabolites by hydrophilic interaction chromatography-tandem mass spectrometry. J Chromatogr 2006; 1125(1):76-88. Signals were normalized to cell number prior to data analysis.

[4] = test system: mutant IDH1 cells; assay: Caspase 3/7 activation assay (Caspase-Glo 3/7); format: cell-based, human; details: 10 μM BPTES, 24 hrs, vs DMSO
Method: Cells were plated at a density of 5000 cells/well in a 96-well black clear bottom plate (Becton Dickinson). 24 hrs after plating, media was changed to fresh media with or without 0.04 μg/mL doxycycline.

[5] = test system: primary acute myelogenous leukemia (AML) cells with mutant or wild-type IDH1; assay: Growth curves of primary AML cells (trypan blue counting); format: cell-based, human; details: BPTES at 20 or 40 μM vs DMSO vehicle
Method: Primary AML cells were cultured in RPMI-1640 media with 20% fetal bovine serum (FBS), 20% 5637 cell-conditioned media and 1% antibiotics as previously described (Miyauchi et al., 1987). Growth curves were generated by manual counting of viable cells as assessed by trypan blue exclusion on a hemocytometer. The detail of the procedure is as following: (1) The frozen cells are thawed and added into 10 mL of the media in a tissue culture flask and grown in a humidified incubator at 37° C. and 5% CO2 for 4-5 days. Cells were counted every 24-48 h to estimate the cells needed for the experiment. […] Then, 10-20 mL media containing each desired concentration of the drug were prepared. […] By doing this, the concentration of DMSO is constant and not more than 0.1%. BPTES is precipitated in PBS, so avoid dilution with PBS. […] When the cells were well homogenized, they were counted by 1:1 trypan blue exclusion with hemocytometer. […] The starting number for each cell line among control/DMSO/drug must be the same and is calculated based on the count from the cell-containing PBS solution. […] (6) Cells were counted every other day using a hemocytometer after staining with trypan blue (1:1). […] Cells were counted in the 4 outer squares of the hemocytometer, and the number was divided by 2 (=n). […] When cell concentration was low, more grids were counted and the cell concentrations were calculated accordingly.

[6] = test system: transformed normal human astrocytes (TNA) overexpressing R132H or WT IDH1; assay: alamarBlue cell growth assay, transformed normal human astrocytes (TNA) expressing WT or R132H IDH1; format: cell-based; details: 48 hours
Method: as §1, with “significant. […]” for “significant.”

## NOCC(=O)O [AOA, amino-oxyacetic acid]
[1]; AOA, 1.5 g/L glucose, 48 hrs
  sensitivity of growth, mutant vs WT IDH1 cells: more sensitive

## O=C(Cc1ccccc1)Nc1nnc(CCSCCc2nnc(NC(=O)Cc3ccccc3)s2)s1 [BPTES]
[2]
  Annexin V staining: does not increase
[1]; D54+R132H compared with D54 and D54+WT IDH1, 48 hours
  effect on growth, mutant vs WT IDH1 cells: preferentially slowed growth of mutant IDH1 cells
[1]; mutant IDH1 D54 cells, 48 hours
  growth reduction: about 20%
[3]
  levels of glycolytic intermediates (fructose-1,6-bisphosphate, dihydroxy-acetone-phosphate, 3-phosphoglycerate): increased
  tricarboxylic acid cycle intermediates (succinate and malate) and aspartate levels: decreases
[3]; WT IDH1 cells
  citrate levels: decreased
[3]; WT and mutant IDH1 cells
  glutamate levels: diminished
  α-KG levels: diminished
[3]; mutant IDH1 cells
  citrate levels: increased
[3]; treated mutant IDH1 cells
  2-HG levels: remained unchanged
[4]
  Caspase 3/7 induction: does not increase
[5]
  cell killing, mIDH1 vs wild-type AML cells: selectively kills
[6]
  sensitivity of growth, mutant vs WT IDH1 cells: mutant IDH1 cells also were more sensitive

## O=C(O[C@@H]1Cc2c(O)cc(O)cc2O[C@@H]1c1cc(O)c(O)c(O)c1)c1cc(O)c(O)c(O)c1 [EGCG, epigallocatechin gallate]
[1]; EGCG, 0.1 g/L glucose, 72 hrs
  sensitivity of growth, mutant vs WT IDH1 cells: more sensitive

## COC(=O)CCC(=O)C(=O)OC [dimethyl-α-ketoglutarate]
[1]; 1 mmol/L dimethyl-α-ketoglutarate, 50 or 100 mmol/L BPTES
  rescue of BPTES growth inhibition at higher BPTES concentrations: not blocked
[1]; mutant IDH1 cells, 1 mmol/L dimethyl-α-ketoglutarate added to BPTES
  rescue of BPTES growth inhibition: significantly reduced growth inhibition

Reference: patent US20130109643A1, “METABOLIC INHIBITOR AGAINST TUMORS HAVING AN IDH MUTATION” (The Johns Hopkins University, priority 2010, published 2013)
